Measured values: paper PMC6921279 (Frontiers in Endocrinology, 2019)
One block for each molecule: values may come before it.

How the values were obtained:
[1] = target: HA-epitope tagged human CRF1 receptor (human); assay: co-IP; HA-CRF1R immunoprecipitated with anti-HA monoclonal antibody (HA.11) and protein A/G PLUS-Agarose from 1% Nonidet P-40 lysates (50 mM Tris-HCl, 150 mM NaCl, pH 7.4) of transfected COS-7 cells, serum-deprived 24 h, untreated or treated with 100 nM CRF for 10 min at 37°C; blots probed for EGFR and HA, stripped and reprobed for c-Src; densitometry
[2] = system: EGF-stimulated ERK1/2 phosphorylation; assay: Modulation of EGF-stimulated ERK1/2 phosphorylation in COS-7 cells; type: cell-based; details: GM6001 10 μM, 30 min pretreatment; 10 ng/ml EGF, 10 min
Description: (§1) COS-7 cells (from the American Type Culture Collection) were cultured at 37°C in a humidified atmosphere of 95% air, 5% CO2, in DMEM supplemented with 10% FBS, 100 μg/ml streptomycin, and 100 units/ml penicillin (COS-7 growth medium). Transient transfections were performed using LipofectAMINE (Life Technologies: Gaithersburg, MD) as described previously ([27]). Cells were seeded at 8 × 10^5 cells/10-cm dish in COS-7 medium and cultured for 3 days before transfection. COS-7 cells were transfected in 5 ml/dish OptiMEM containing 10 μg/ml LipofectAMINE with empty vector, pcDNA3 encoding the HA-CRF1R or the HA-CRF1R-Δ386 mutant. […] After replacing the transfection medium with fresh growth medium, transfected COS-7 cells were cultured for 1 day. […]
(§2) The protocols for measuring total and phosphorylated ERK1/2, c-Src, PYK2, Akt, and EGFR have been previously published ([28], [29]). […] The labeled bands were quantified using the Quantity One 4.6.3 software program (Bio-Rad).
Figure 3 Involvement of EGFR transactivation in CRF-stimulated ERK1/2 phosphorylation. […] Total cell lysates were separated by SDS-PAGE and analyzed by immunoblotting with anti-p-ERK1/2 Thr^202/Tyr^204 (A–D) or anti-p-EGFR Tyr^1068 (E), as described in Materials and Methods. ERK1/2 and EGFR phosphorylation were quantitated by densitometry, and mean values were plotted from three to five independent experiments. […]

[3] = system: PMA-stimulated ERK1/2 phosphorylation; assay: Modulation of PMA-stimulated ERK1/2 phosphorylation in COS-7 cells; type: cell-based; details: GM6001 10 μM, 30 min pretreatment; 100 nM PMA, 15 min
Description: COS-7 cells (from the American Type Culture Collection) were cultured at 37°C in a humidified atmosphere of 95% air, 5% CO2, in DMEM supplemented with 10% FBS, 100 μg/ml streptomycin, and 100 units/ml penicillin (COS-7 growth medium). Transient transfections were performed using LipofectAMINE (Life Technologies: Gaithersburg, MD) as described previously ([27]). Cells were seeded at 8 × 10^5 cells/10-cm dish in COS-7 medium and cultured for 3 days before transfection. COS-7 cells were transfected in 5 ml/dish OptiMEM containing 10 μg/ml LipofectAMINE with empty vector, pcDNA3 encoding the HA-CRF1R or the HA-CRF1R-Δ386 mutant. […]
as §2
Figure 2 CRF-induced ERK1/2 phosphorylation is dependent on Gi protein. […] Total cell lysates were separated by SDS-PAGE and analyzed by immunoblotting with anti-p-ERK1/2 Thr^202/Tyr^204, as described in Materials and Methods. ERK1/2 phosphorylation was quantitated by densitometry, and mean values were plotted from five independent experiments. […]
Total cell lysates were separated by SDS-PAGE and analyzed by immunoblotting with anti-p-ERK1/2 Thr202/Tyr204, as described in materials and methods. […]

[4] = system: CRF1R-mediated ERK1/2 phosphorylation; assay: Modulation of CRF-stimulated ERK1/2 phosphorylation in COS-7 cells expressing HA-CRF1R; type: cell-based
Description: (§3) Plasmid pRK5 encoding the carboxyl terminus of βARK that contains its βγ-binding domain (ct-βARK) was kindly provided by Dr. W. Koch (Center for Translational Medicine, Temple University, Philadelphia, PA), which is a scavenger for G protein βγ subunits ([25]). […] Plasmid pUSEamp encoding dominant-negative Akt-K179M (dn-Akt) was from Upstate Biotechnology (Lake Placid, NY).
(§4) COS-7 cells (from the American Type Culture Collection) were cultured at 37°C in a humidified atmosphere of 95% air, 5% CO2, in DMEM supplemented with 10% FBS, 100 μg/ml streptomycin, and 100 units/ml penicillin (COS-7 growth medium). Transient transfections were performed using LipofectAMINE (Life Technologies: Gaithersburg, MD) as described previously ([27]). Cells were seeded at 8 × 10^5 cells/10-cm dish in COS-7 medium and cultured for 3 days before transfection. COS-7 cells were transfected in 5 ml/dish OptiMEM containing 10 μg/ml LipofectAMINE with empty vector, pcDNA3 encoding the HA-CRF1R or the HA-CRF1R-Δ386 mutant. […] After replacing the transfection medium with fresh growth medium, transfected COS-7 cells were cultured for 1 day. Subsequently, cells were re-seeded in 6-well plates and cultured for an additional day prior to the experiment.
(§5) The protocols for measuring total and phosphorylated ERK1/2, c-Src, PYK2, Akt, and EGFR have been previously published ([28], [29]). After cells were cultured to 60–70% confluence, they were serum-deprived for 24 h. On the day of the experiment, cells were treated with the indicated ligands and inhibitors. […] After treatment, cells were placed on ice, the media was aspirated, and the cells were washed twice with ice-cold PBS and lysed in 100 μl of Laemmli sample buffer 1X. The lysates were briefly sonicated, heated at 95°C for 5 min, and centrifuged for 5 min at 14,000 rpm. Resulting supernatants were loaded in separate lanes of a 10% SDS-PAGE gels and electrophoresed. Next, Western transfer on to PDVF membranes was completed. The Western blots were then probed with specific antibodies targeting phosphorylated and non-phosphorylated forms of ERK1/2, c-Src, PYK2, Akt, and EGFR for primary immunodetection. After blots were probed with horseradish peroxidase-conjugated secondary antibody, protein bands were visualized with enhanced chemiluminescence ECL reagent (Amersham Pharmacia Biotech, Piscataway, NJ or Pierce Biotechnology, Rockford, IL) and scanned using the GS-800 Calibrated Imaging Densitometer (Bio-Rad). The labeled bands were quantified using the Quantity One 4.6.3 software program (Bio-Rad).
Total cell lysates were separated by SDS-PAGE and analyzed by immunoblotting with anti-p-ERK1/2 Thr^202/Tyr^204, as described in Materials and Methods. ERK1/2 phosphorylation was quantitated by densitometry, and mean values were plotted from five independent experiments.
(§6) Total cell lysates were separated by SDS-PAGE and analyzed by immunoblotting with anti-p-ERK1/2 Thr^202/Tyr^204 (A–D) or anti-p-EGFR Tyr^1068 (E), as described in Materials and Methods. ERK1/2 and EGFR phosphorylation were quantitated by densitometry, and mean values were plotted from three to five independent experiments.
Total cell lysates were separated by SDS-PAGE and analyzed by immunoblotting with anti-p-ERK1/2 Thr^202/Tyr^204, as described in Materials and Methods. ERK1/2 phosphorylation was quantitated by densitometry, and mean values were plotted from three to five independent experiments.

[5] = system: CRF1R-mediated Akt phosphorylation; assay: CRF-induced Akt phosphorylation at Ser473 in COS-7 cells expressing HA-CRF1R; type: cell-based, human; details: 100 nM CRF, 5 min
Description: as §3, §4
as §5, with “After blots were probed with horseradish peroxidase-conjugated secondary antibody, protein bands were visualized with enhanced chemiluminescence ECL reagent (Amersham Pharmacia Biotech, Piscataway, NJ or Pierce Biotechnology, Rockford, IL) and scanned using the GS-800 Calibrated Imaging Densitometer (Bio-Rad).” left out
Figure 7 CRF mediates Akt activation. […] Total cell lysates were separated by SDS-PAGE and analyzed by immunoblotting with anti-p-Akt Ser^473, as described in Materials and Methods. Akt phosphorylation was quantitated by densitometry, and mean values were plotted from three to five independent experiments. […]

[6] = system: endogenous EGFR in COS-7 cells; assay: EGF-stimulated ERK1/2 phosphorylation in COS-7 cells expressing HA-CRF1R; type: cell-based
Description: as §1, §2, §6

[7] = target: epidermal growth factor receptor (African green monkey (endogenous in COS-7))

Sequence of epidermal growth factor (P01133 971-1023): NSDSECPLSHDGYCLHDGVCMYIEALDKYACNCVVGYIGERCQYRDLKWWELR

- fold increase of co-precipitated EGFR over control (100 nM CRF, 10 min, against unstimulated cells) [1]: 2.5 fold
Molecule: epidermal growth factor receptor

Molecule: CNC(=O)[C@H](Cc1c[nH]c2ccccc12)NC(=O)[C@@H](CC(=O)NO)CC(C)C [GM6001]
- effect on EGF-induced ERK1/2 phosphorylation [2]: significantly attenuated ERK1/2 phosphorylation induced by PMA but not EGF
- effect on PMA-induced ERK1/2 phosphorylation [3]: significantly attenuated ERK1/2 phosphorylation induced by PMA
- effect on basal and CRF-stimulated ERK1/2 phosphorylation ([4]; GM6001 0–20 μM, 30 min pretreatment, 100 nM CRF, 5 min): not altered

Molecule: Nc1ncnc2c1ncn2[C@@H]1O[C@@H]2COP(O)(=S)O[C@H]2[C@H]1O (some centres unmarked) [Rp-cAMP]
- effect on CRF-stimulated ERK1/2 activation ([4]; Rp-cAMP 0–100 μM, 30 min pretreatment, 100 nM CRF, 5 min): the magnitude of CRF1R-mediated activation of ERK1/2 was similar

Molecule: O=c1cc(N2CCOCC2)oc2c(-c3ccccc3)cccc12 [LY294002]
- effect on CRF1R-mediated Akt signaling activation ([5]; LY294002 10 μM, 30 min pretreatment): abolished CRF1R-mediated Akt signaling activation
- effect on CRF-stimulated phosphorylation of ERK1/2 ([4]; LY294002 pretreatment (discussion)): inhibited CRF-stimulated phosphorylation of ERK1/2 and Akt

Molecule: EGF: epidermal growth factor
- persistence of ERK1/2 phosphorylation ([6]; 10 ng/ml EGF): at least 30 min
- EC50 for EGF-induced ERK1/2 phosphorylation ([6]; EGF 0–100 ng/ml, 10 min): 0.23 ng/mL

Molecule: dn-Akt: plasmid pUSEamp encoding dominant-negative Akt-K179M
- effect on ERK1/2 activation by CRF ([4]; dn-Akt (K179M) co-transfection, 100 nM CRF): had no significant effect on ERK1/2 activation after stimulation with CRF

- IC50 ([4]; COS-7, AG1478 0–1,000 nM, 30 min pretreatment, 100 nM CRF, 5 min, read-out: IC50, inhibition of CRF-stimulated ERK1/2 phosphorylation): 10 nM
Molecule: COc1cc2ncnc(Nc3cccc(Cl)c3)c2cc1OC [AG1478]
- decrease of CRF-stimulated Akt phosphorylation ([5]; AG1478 100 nM): 25%
- effect on CRF-stimulated ERK1/2 phosphorylation ([4]; AG1478 100 nM, 100 nM CRF, 5 min): abolished phosphorylation of ERK1/2
- inhibition at 0.1 µM ([4]; Homo sapiens, COS-7, 100 nM AG1478, 30 min pretreatment, 100 nM CRF, 5 min, read-out: inhibition of CRF-induced maximal ERK1/2 phosphorylation): ~80%

Molecule: CNC(=O)[C@H](Cc1ccccc1)NC(=O)[C@H](CC(C)C)[C@H](CSc1cccs1)C(=O)NO [batimastat]
- effect on basal and CRF-stimulated ERK1/2 phosphorylation ([4]; batimastat 5 μM, 30 min pretreatment, 100 nM CRF, 5 min): not altered

- EC50 of EGF-induced ERK1/2 phosphorylation, COS-7 cells (endogenous EGFR), EGF 0-100 ng/ml for 10 min, immunoblot densitometry [7]: 0.23 ng/mL
Molecule: epidermal growth factor (from UniProt P01133 971-1023) (ligand)

- fold increase of co-precipitated Src over control (100 nM CRF, 10 min, against unstimulated cells) [1]: 8 fold
Molecule: c-Src (enzyme)
